Experimental findings from paper PMC10118193, “Biochemical characterization of a GDP-mannose transporter from Chaetomium thermophilum” (PLOS ONE, 2023) are described below.

pIC50, pKd: −log10 of the molar value.

The target of test [1] is T1, CtVrg4 (Vrg4 from Chaetomium thermophilum) (Thermochaetoides thermophila, UniProt G0S534, Y310F).
T1 construct: gene CTHT_0023930; full length, 385 residues, N-terminal 12-His tag, about 37 kDa, expressed in S. cerevisiae FGY217, purified in DDM
As to the kind of experiment: thermal shift titration (Tycho NT.[…]). It counts as binding.

Test [2] has as its target T2, CtVrg4Δ31 (Thermochaetoides thermophila, UniProt G0S534).
T2 construct: gene CTHT_0023930; C-terminal truncation lacking the last 31 residues (Golgi retrieval signal), residues 1-354, N-terminal 12-His tag, expressed in S. cerevisiae FGY217, purified in DDM
The experiment in a line: thermal shift titration (Tycho NT.[…]). It counts as binding.

In test [3] the target is T3, CtVrg4 (Vrg4 from Chaetomium thermophilum) (Thermochaetoides thermophila, UniProt G0S534).
T3 construct: gene CTHT_0023930; full length, 385 residues, N-terminal 12-His tag, about 37 kDa, expressed in S. cerevisiae FGY217, purified in DDM
T3 sequence (G0S534 entry or part of it): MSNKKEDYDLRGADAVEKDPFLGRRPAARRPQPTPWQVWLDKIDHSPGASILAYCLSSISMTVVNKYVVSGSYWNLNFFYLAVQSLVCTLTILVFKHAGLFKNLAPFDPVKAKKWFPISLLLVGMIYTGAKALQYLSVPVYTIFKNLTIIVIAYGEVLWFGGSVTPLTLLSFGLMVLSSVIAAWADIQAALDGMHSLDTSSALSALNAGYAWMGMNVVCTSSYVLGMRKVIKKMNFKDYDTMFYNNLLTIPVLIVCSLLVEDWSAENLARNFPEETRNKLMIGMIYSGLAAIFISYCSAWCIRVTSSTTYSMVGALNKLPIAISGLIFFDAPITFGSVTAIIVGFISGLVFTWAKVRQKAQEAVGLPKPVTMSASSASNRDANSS
As to the kind of experiment: thermal shift titration (Tycho NT.[…]). The class given is binding.

The target in test [4] is T2, CtVrg4Δ31. The experiment in a line: competition of [3H]GMP uptake into proteoliposomes. The class given is biochemical.
The target in test [5] is T4, Chymotrypsin-cleaved CtVrg4 (cCtVrg4) (Thermochaetoides thermophila, UniProt G0S534).
T4 construct: gene CTHT_0023930; full-length His-tagged protein cut by chymotrypsin (50:1, 2 h, 18 °C); crystals of cleaved protein ~25 kDa
T4 sequence (G0S534 entry or part of it): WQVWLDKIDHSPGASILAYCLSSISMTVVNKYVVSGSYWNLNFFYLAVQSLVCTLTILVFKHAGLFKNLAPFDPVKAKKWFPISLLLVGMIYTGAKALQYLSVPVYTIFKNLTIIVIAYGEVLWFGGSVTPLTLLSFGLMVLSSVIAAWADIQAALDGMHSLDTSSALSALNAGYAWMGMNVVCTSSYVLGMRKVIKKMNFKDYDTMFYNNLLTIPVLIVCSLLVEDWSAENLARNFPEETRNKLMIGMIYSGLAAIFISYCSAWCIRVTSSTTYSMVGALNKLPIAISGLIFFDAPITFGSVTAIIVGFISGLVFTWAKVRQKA
The experiment in a line: exchange of internal GDP-mannose with external [3H]GMP in proteoliposomes. It counts as biochemical. Particulars: yeast polar lipid proteoliposomes; internal GDP-mannose 1-1000 μM; 0.384 μM external [3H]GMP; room temperature, 10 min.

The target in test [6] is T3, CtVrg4 (Vrg4 from Chaetomium thermophilum). As to the kind of experiment: competition of [3H]GMP uptake into proteoliposomes. It counts as biochemical.
Test [7] concerns the target T1, CtVrg4 (Vrg4 from Chaetomium thermophilum). The experiment in a line: competition of [3H]GMP uptake into proteoliposomes. The class given is biochemical.

T1 sequence (G0S534 entry or part of it Y310F): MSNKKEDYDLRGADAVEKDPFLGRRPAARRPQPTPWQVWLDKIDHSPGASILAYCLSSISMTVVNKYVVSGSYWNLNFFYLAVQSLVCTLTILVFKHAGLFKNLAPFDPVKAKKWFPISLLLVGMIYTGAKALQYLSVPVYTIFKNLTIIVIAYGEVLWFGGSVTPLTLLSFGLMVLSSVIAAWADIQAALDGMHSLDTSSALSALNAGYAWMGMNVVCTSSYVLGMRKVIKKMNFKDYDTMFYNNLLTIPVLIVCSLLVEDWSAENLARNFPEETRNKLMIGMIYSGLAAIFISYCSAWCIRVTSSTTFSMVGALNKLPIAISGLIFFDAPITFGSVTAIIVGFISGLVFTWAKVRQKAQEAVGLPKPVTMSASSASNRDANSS
T2 sequence (G0S534 entry or part of it, stated change not applied): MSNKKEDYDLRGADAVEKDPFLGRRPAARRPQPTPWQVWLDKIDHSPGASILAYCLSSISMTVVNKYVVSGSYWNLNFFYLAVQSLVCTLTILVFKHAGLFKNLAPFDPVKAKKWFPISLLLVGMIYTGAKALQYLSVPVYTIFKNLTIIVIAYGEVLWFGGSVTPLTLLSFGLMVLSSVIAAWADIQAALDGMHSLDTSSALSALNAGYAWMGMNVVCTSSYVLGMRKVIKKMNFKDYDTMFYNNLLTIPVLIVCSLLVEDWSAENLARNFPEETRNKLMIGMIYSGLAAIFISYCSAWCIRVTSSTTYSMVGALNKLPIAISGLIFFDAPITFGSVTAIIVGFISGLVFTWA

The term pKd denotes the negative decadic logarithm of the Kd, by convention in mol/L. Turning to `Nc1nc2c(ncn2[C@@H]2O[C@H](COP(=O)(O)O)[C@@H](O)[C@H]2O)c(=O)[nH]1` [GMP], the negative logarithm of the Kd (pKd) in test [1] is 3.86; in test [2], 4.20; in test [3], 3.84.

Broadly, the pIC50 is −log10 of the IC50, conventionally taken in molar units. Higher therefore signals a small IC50. Broadly, the Km is the concentration of substrate that gives half-maximal velocity. With `Nc1nc2c(ncn2[C@@H]2O[C@H](COP(=O)(O)OP(=O)(O)O[C@H]3O[C@H](CO)[C@@H](O)[C@H](O)[C@@H]3O)[C@@H](O)[C@H]2O)c(=O)[nH]1` [GDP-mannose], the negative logarithm of the IC50 (pIC50) in test [4] was 4.32; in test [6], 4.59; in test [7], 4.33. Besides, the Km in test [5] was found to be 32.1 µM. Besides, the pKd in test [1] is 3.89; in test [2], 4.23; in test [3], 4.13.
